Assay: in vitro
Settings: human, hela cells, % viability

Row | Structure (SMILES) | viability at 28.5 h, 10 µM | viability at 28.5 h, 10 µM (bulk resorufin, single well)
1 | CCN1CCC2CN(CCCC(c3ccc(F)cc3)c3ccc(F)cc3)CCN2C1=O (stereo not shown) [CBK024996] | 92.7% | –
2 | CCOC(=O)N1CCN(CCCCc2ccc(F)cc2)CC1 [CBK025002C] | 105% | –
3 | CCC(=O)N1CCN(CCCC(=O)c2ccc(F)cc2)CC1 [CBK025017C] | 108% | –
4 | CC1CN(C(=O)c2ccccc2)CC(C)N1CCCCc1ccc(F)cc1 (stereo not shown) [CBK025019C] | 97.9% | –
5 | CCN(CC)C(=O)N1CCN(CCCC(=O)c2ccc(F)cc2)CC1 [CBK025042C] | 85.4% | –
6 | OC1(CCCN2CCOCC2)C2CCCC1CN(Cc1ccccc1)C2 (stereo not shown) [CBK025076C] | 115% | –
7 | O=C(NC1CC1)N1CCN(CCCOc2ccc(F)cc2)CC1 [CBK025077C] | 111% | –
8 | Cc1cccc(N2CCN(CCCC(c3ccc(F)cc3)c3ccc(F)cc3)CC2)n1 [CBK025113C] | 93.9% | –
9 | Fc1ccc(N(CCCN2CCN(c3ncccn3)CC2)c2ccc(F)cc2)cc1 [CBK025127C] | 98.8% | –
10 | Cc1ccc(C(=O)C2(O)CCN(CCCC(c3ccc(F)cc3)c3ccc(F)cc3)CC2)cc1 [CBK025221C] | 90.6% | –
11 | CCC(=O)OC1(C(=O)c2ccc(F)cc2)CCN(CCCC(c2ccc(F)cc2)c2ccc(F)cc2)CC1 [CBK025227C] | 84.3% | –
12 | C#CC1(OC(=O)CC)CCN(CCCC(=O)c2ccc(F)cc2)CC1 [CBK025277C] | 108% | –
13 | CNC(=O)c1cccnc1N1CCN(CCCC(c2ccc(F)cc2)c2ccc(F)cc2)CC1 [CBK025309C] | 95% | –
14 | NC(=O)c1cccnc1N1CCNCC1 [CBK025310C] | 85.8% | –
15 | CC(=O)Nc1cc(C)c(C)cc1NC(C)=O [CBK025366] | 97.5% | –
16 | CNc1nc(C(C)(C)C)cs1 [CBK025373] | 88.2% | –
17 | Cc1[nH]nc(C(F)(F)F)c1Cl [CBK025387] | 113% | –
18 | c1ccc2[nH]c(SCCCCCSc3nc4ccccc4[nH]3)nc2c1 [CBK025418] | 101% | –
19 | Nc1nnc(-c2ccc(Cl)cc2)[nH]1 [CBK025436] | 118% | –
20 | c1ccc2oc(SCCCCSc3nc4ccccc4o3)nc2c1 [CBK025465] | 97.7% | –
21 | COc1ccc([C@@]23CC[C@@H](NC(=S)NC(C)=O)C[C@@H]2N(Cc2ccccc2)CC3)cc1OC [CBK025503T] | 90.2% | –
22 | CCCNCC(=O)N1CCN(C(=O)c2ccc(C)cc2)CC1 [CBK025546] | 103% | –
23 | CC1(C)CC(CN)(c2ccccc2)CCO1 (stereo not shown) [CBK025559C] | 94.9% | –

Row | Structure (SMILES) | viability at 28.5 h, 10 µM | viability at 28.5 h, 10 µM (bulk resorufin, single well)
24 | COc1ccc(C(=O)Nc2nnc[nH]2)cc1 [CBK025569] | 90.8% | –
25 | CC(C)(C)NCC(O)COc1ccc(Cl)cc1Cl (stereo not shown) [CBK025597C] | 101% | –
26 | c1ccc2c(CSc3ncn[nH]3)cccc2c1 [CBK025610] | 114% | –
27 | CN1CCN(c2snnc2CO)CC1 [CBK025626] | 99.5% | –
28 | Cc1nc2[nH]c(=O)nc(N)c2nc1C [CBK025658] | 83.3% | –
29 | C/C(=N\NC(=O)c1nonc1N)c1ccc(Cl)cc1 [CBK025664] | 107% | –
30 | COc1nc2nc(N)nc(N)c2nc1C [CBK025669] | 90.1% | –
31 | Cc1ccc(N2C(=O)CSC2c2ccc(Cl)cc2Cl)cc1 (stereo not shown) [CBK025673] | 105% | –
32 | CCSc1nnc2c(n1)OC(C)Nc1ccccc1-2 (stereo not shown) [CBK025684] | 102% | –
33 | FC(F)c1cc(-c2ccccc2)n2ncnc2n1 [CBK025714] | 87.3% | –
34 | CCOC(=O)C(NC(=O)CC)(Nc1cc(C)on1)C(F)(F)F (stereo not shown) [CBK025721] | 117% | –
35 | CCOC(=O)N1C(=O)c2ccccc2NC1(C(F)(F)F)C(F)(F)F [CBK025725] | 102% | –
36 | Cc1ccc(C(=O)n2c(=S)nc3ccccn32)cc1 [CBK025729] | 91.9% | –
37 | Nc1ncn(Cc2ccccc2)c2nc(SCc3ccccc3)nc1-2 [CBK025744] | 106% | –
38 | CC1CCC/C(=N\NC(=O)C2C3CCCCC32)C1 (stereo not shown) [CBK025750] | 116% | –
39 | COc1ccc(/C=N/Nc2nc(OC)nc(N3CCOCC3)n2)cc1 [CBK025751] | 91.6% | –
40 | Cc1cc(C)n2c(SCc3ccccc3)nnc2n1 [CBK025780] | 82% | –
41 | COc1ccc(Cl)cc1NS(=O)(=O)N(C)C [CBK025794] | 90.6% | –
42 | Cc1cc(C)n(CCOc2nonc2N)n1 [CBK025818] | 117% | –
43 | COC(=O)C#CCNc1cc(Cl)ccc1Cl [CBK025852] | 57.6% | –
44 | CC(CN(C)C)C(=O)c1ccsc1 (stereo not shown) [CBK025906] | 93% | –
45 | CN(C)c1nc(Cl)nc(N(C)C#N)n1 [CBK025922] | 87.7% | –
46 | Clc1cc(Cl)c2[nH]c3c(c2c1)CCc1nonc1-3 [CBK025929] | 102% | –

Row | Structure (SMILES) | viability at 28.5 h, 10 µM | viability at 28.5 h, 10 µM (bulk resorufin, single well)
47 | Cc1cc(Sc2nc[nH]n2)c2c(Cl)ccc(Cl)c2n1 [CBK025959] | 109% | –
48 | CSc1nnc2c(n1)[nH]c1ccccc12 [CBK025967] | 96.6% | –
49 | Cc1cc(C)c2c(N)nc(N)nc2n1 [CBK025968] | 105% | –
50 | Fc1ccc2c(-c3ccccc3)noc2c1 [CBK025975] | 86.8% | –
51 | Nc1ncc(CCCN2CCOCC2)c(N)n1 [CBK025981] | 125% | –
52 | CN1C2CCC1CC(OC(=O)c1cccnc1)C2 (stereo not shown) [CBK026000] | 100% | –
53 | CCn1c(C)nn(-c2nc3c(Cl)cccc3s2)c1=O [CBK026010] | 100% | –
54 | Cc1ccc(Nc2nc(O)ns2)cc1 [CBK026011] | 81% | –
55 | Oc1nsnc1-c1ccccc1 [CBK026014] | 95% | –
56 | O=C1CSC2(C(=O)Nc3ccccc32)N1c1ccc([N+](=O)[O-])cc1 (stereo not shown) [CBK026035] | 93.5% | –
57 | O=C(Nc1nc2ccc(Br)cc2s1)C1CC1 [CBK026046] | 108% | –
58 | O=C(Cn1cnnn1)N1CCN(Cc2ccccc2)CC1 [CBK026053] | 85.5% | –
59 | CS(=O)(=O)c1nnn(CC#N)n1 [CBK026075] | 90% | –
60 | COc1cccc2c(O)cnnc12 [CBK026139] | 87.2% | –
61 | COc1ccc(-c2nc3ccccc3s2)cc1O [CBK026156] | 91.6% | –
62 | Cc1nnc(SCCOc2ccc(Cl)c(C)c2)s1 [CBK026160] | 89.9% | –
63 | NC(=O)c1nnc2ccc(Cl)cc2c1N [CBK026161] | 89.9% | –
64 | NC(=O)CSc1nnc(-c2ccncc2)[nH]1 [CBK026179] | 107% | –
65 | NC(=O)C[S+]([O-])C(c1ccccc1)c1ccccc1 (stereo not shown) [CBK026184] | – | 102%
66 | COc1cc2nnnn2c(-c2ccccc2)n1 [CBK026189] | 102% | –
67 | CN1CCN(C2Cc3ccccc3Sc3c(O)cccc32)CC1 (stereo not shown) [CBK026200G] | 98% | –
68 | CNCc1ccccc1Sc1cccc(OC)c1 [CBK026207C] | 103% | –
69 | CCN(CC)C(=O)CSc1nnc[nH]1 [CBK026212] | 93.3% | –

Row | Structure (SMILES) | viability at 28.5 h, 10 µM | viability at 28.5 h, 10 µM (bulk resorufin, single well)
70 | c1ccc(CSc2nnc(-c3ccco3)o2)cc1 [CBK026283] | 106% | –
71 | Nc1nnc(CCS(=O)(=O)c2ccc(Br)cc2)s1 [CBK026286] | 109% | –
72 | C/C(=N\NC(=O)CSCc1ccccc1Br)c1cccc([N+](=O)[O-])c1 [CBK026344] | 95.9% | –
73 | Brc1ccc(NCc2ccccn2)cc1 [CBK026347] | 104% | –
74 | Cc1ccsc1CN1CCCCC1CO (stereo not shown) [CBK026348] | 107% | –
75 | Nc1nnc(SCc2ccc(Br)cc2)s1 [CBK026356] | 109% | –
76 | Brc1ccc(CSc2nc[nH]n2)cc1 [CBK026361] | 85.3% | –
77 | COc1ccc(OCCCOc2ccccc2C(C)C)cc1 [CBK026366] | 90.8% | –
78 | C(=N\N1CCOCC1)/c1ccc2c(c1)OCO2 [CBK026446] | 108% | –
79 | CC(=O)Nc1cc(I)cc(C(=O)O)c1 [CBK026452G] | 104% | –
80 | CC(=O)N1c2ccccc2C(C)(c2ccc(Br)cc2)CC1(C)C (stereo not shown) [CBK026461] | 95.8% | –
81 | N#CC1CCCc2c1[nH]c1ccc(Br)cc21 (stereo not shown) [CBK026475] | 64.7% | –
82 | O=C(O)C1Nc2ccc(Br)cc2C2C=CCC12 (stereo not shown) [CBK026482] | 92.1% | –
83 | Cc1cn(S(=O)(=O)c2ccc(Br)cc2)cn1 [CBK026488] | 97.3% | –
84 | Fc1ccc(SCCc2ccccn2)cc1 [CBK026491G] | 82.9% | –
85 | Cc1cn(S(=O)(=O)c2ccc(Cl)cc2)cn1 [CBK026492] | 113% | –
86 | Cc1cc(C)n(-c2ccccc2O)n1 [CBK026493] | 102% | –
87 | CSc1nnc(-c2ccc(Br)cc2)o1 [CBK026502] | 91.9% | –
88 | CC(C)NC(=O)c1ccccc1Br [CBK026505] | 86.2% | –
89 | Nc1nc(N)n(-c2ccccc2)n1 [CBK026515] | 104% | –
90 | COc1ccc2nc(C(=O)O)sc2c1 [CBK026523N] | 88.4% | –
91 | O=c1[nH]c2cc(Cl)c(Br)nc2[nH]1 [CBK026531] | 76.9% | –

Source: article PMC12040169 (PLOS Biology, 2025)
